From patent publication US7223759B2, “Antibacterial 3,5-diaminopiperidine-substituted aromatic and heteroaromatic compounds” (Anadys Pharmaceuticals, Inc., priority 2003, dated 2007)
Like-named read-outs stand apart in the source and are kept apart here.

System: Escherichia coli (ATCC25922) or Staphylococcus aureus (ATCC25923)
Test: Antibacterial MIC, microdilution method in Mueller-Hinton medium
Format: cell-based
Conditions: Escherichia coli, 18 h, read-out: Potency (MIC)
Summary of the method: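 Read after 18 h incubation at 35° C, MIC is the lowest compound level that blocked growth. Compounds were tested in duplicate over 64–0.5 μg/ml two-fold dilutions using Mueller-Hinton microdilution per NCCLS standard.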

[1] = MIC in E. coli or S. aureus, two-fold serial dilutions 64 to 0.5 μg/ml in duplicate, 18 hours of incubation at 35° C.

SMILES | MIC [µg/mL] | MIC [1] [µg/mL]
CCCCCCOc1ccc(Nc2nc(N3C[C@H](N)C[C@H](N)C3)nc(N3C[C@H](N)C[C@H](N)C3)n2)cc1 [N-(4-hexyloxy-phenyl)-4,6-Bis-((3R,5S)-3,5-diamino-piperidin-1-yl)-[1,3,5]triazine-2-amine] | < 16 | –
N[C@@H]1C[C@H](N)CN(c2nc(Nc3ccc(NC(=O)c4ccc(Cl)cc4)c(O)c3)nc(N3C[C@@H](N)C[C@@H](O)C3)n2)C1 [N-{4-[4-((3S,5R)-3-Amino-5-hydroxy-piperidin-1-yl)-6-((3S,5R)-3,5-diamino-piperidin-1-yl)-[1,3,5]triazin-2-ylamino]-2-hydroxy-phenyl}-4-chloro-benzamide] | < 16 | –
CCCCCC(CC)C(=O)Nc1ccc(S(=O)(=O)Nc2ccc(Nc3nc(N4C[C@H](N)C[C@H](N)C4)nc(N4C[C@H](N)C[C@H](N)C4)n3)cc2O)cc1 (stereo partly drawn) [N-{4-[4-(2-ethyl-heptanoylamino)-benzenesulfonylamino]-3-hydroxy-phenyl}-4,6-Bis-((3R,5S)-3,5-diamino-piperidin-1-yl)-[1,3,5]triazine-2-amine] | < 16 | –
NC[C@@H]1C[C@H](CN)CN(c2nc(Nc3ccc(C(=O)Oc4ccccc4)c(O)c3)nc(N3C[C@H](N)C[C@H](N)C3)n2)C1 [4-[4-((3R,5S)-3,5-Bis-(aminomethyl)-piperidin-1-yl)-6-((3R,5S)-3,5-diamino-piperidin-1-yl)-[1,3,5]triazin-2-ylamino]-2-hydroxy-benzoic acid phenyl ester] | < 64 | –
Cc1ccc(C(=O)Nc2ccc(Nc3nc(N4C[C@H](N)C[C@H](N)C4)nc(N4CCC[C@@H](O)C4)n3)cc2O)cc1 [N-{4-[4-((3R,5S)-3,5-Diamino-piperidin-1-yl)-6-((R)-3-hydroxy-piperidin-1-yl)-[1,3,5]triazin-2-ylamino]-2-hydroxy-phenyl}-4-methyl-benzamide] | > 64 | –
N[C@@H]1C[C@H](N)CN(c2nc(NNC3=NCCCN3)nc(N3C[C@H](N)C[C@H](N)C3)n2)C1 [N-(4,6-Bis-((3R,5S)-3,5-diamino-piperidin-1-yl)-[1,3,5]triazin-2-yl)-N′-(1,4,5,6-tetrahydro-pyrimidin-2-yl)-hydrazine] | > 64 | –
COc1nc(Nc2ccc(C(=O)Oc3ccccc3)c(O)c2)nc(N2CCCCC2)n1.Cl [4-[4-((3R,5S)-3,5-Diamino-piperidin-1-yl)-6-methoxy-[1,3,5]triazin-2-ylamino]-2-hydroxy-benzoic acidphenylester] | – | < 16
NC[C@@H]1C[C@H](CN)CN(c2nc(Nc3ccc(C(=O)CC(=O)Nc4ccccc4Cl)cc3)nc(N3C[C@H](N)C[C@H](N)C3)n2)C1 [3-{4-[4-((3R,5S)-3,5-Bis-(aminomethyl)-piperidin-1-yl)-6-((3R,5S)-3,5-diamino-piperidin-1-yl)-[1,3,5]triazin-2-ylamino]-phenyl}-N-(2-chloro-phenyl)-3-oxo-propionamide] | < 64 | –
Cc1ccc(S(=O)(=O)N(Cc2ccccc2)c2ccc(Nc3nc(NC4CCCNC4)nc(N4C[C@H](N)C[C@H](N)C4)n3)cc2O)cc1 (stereo partly drawn) [N-Benzyl-N-{4-[4-((3R,5S)-3,5-diamino-piperidin-1-yl)-6-(piperidin-3-ylamino)-[1,3,5]triazin-2-ylamino]-2-hydroxy-phenyl}-4-methyl-benzenesulfonamide] | < 64 | –
N[C@@H]1C[C@H](N)CN(c2nc(Nc3ccc(C(=O)Nc4cccc(SC(F)(F)F)c4)c(O)c3)nc(N3C[C@H](N)C[C@H](N)C3)n2)C1 [N-[3-hydroxy-4-(3-trifluoromethylsulfanyl-phenylcarbamoyl)-phenyl]-4,6-Bis-((3R,5S)-3,5-diamino-piperidin-1-yl)-[1,3,5]triazine-2-amine] | < 16 | –
Cc1ccc(C(=O)Nc2ccc(Nc3nc(N4C[C@H](N)C[C@H](N)C4)nc(N4C[C@@H](N)C[C@@H](O)C4)n3)cc2O)cc1 [N-{4-[4-((3S,5R)-3-Amino-5-hydroxy-piperidin-1-yl)-6-((3R,5S)-3,5-diamino-piperidin-1-yl)-[1,3,5]triazin-2-ylamino]-2-hydroxy-phenyl}-4-methyl-benzamide] | < 64 | –
N[C@@H]1C[C@H](N)CN(c2nc(NCCc3ccc(Cl)cc3Cl)nc(N3C[C@H](N)C[C@H](N)C3)n2)C1 [N-[2-(2,4-dichloro-phenyl)-ethyl]-4,6-Bis-((3R,5S)-3,5-diamino-piperidin-1-yl)-[1,3,5]triazine-2-amine] | > 64 | –
CC(=O)Nc1ccc(Nc2nc(N3C[C@H](N)C[C@H](N)C3)nc(N3C[C@H](N)C[C@H](N)C3)n2)cc1 [drawing 485, N-(4-acetylamino-phenyl)-4,6-Bis-((3R,5S)-3,5-diamino-piperidin-1-yl)-[1,3,5]triazine-2-amine] | < 64 | –
Cc1ccc(C(=O)Nc2ccc(Nc3nc(N4C[C@H](N)C[C@H](N)C4)nc(N4C[C@H](N)C[C@H](N)C4)n3)c(C)c2)c(O)c1 [N-[4-(2-hydroxy-4-methyl-benzoylamino)-2-methyl-phenyl]-4,6-Bis-((3R,5S)-3,5-diamino-piperidin-1-yl)-[1,3,5]triazine-2-amine] | < 64 | –
N[C@@H]1C[C@H](N)CN(c2nc(Nc3ccc(NC(=O)c4c(O)ccc5ccccc45)c(Cl)c3)nc(N3C[C@H](N)C[C@H](N)C3)n2)C1 [N-{3-chloro-4-[(2-hydroxy-naphthalene-1-carbonyl)-amino]-phenyl}-4,6-Bis-((3R,5S)-3,5-diamino-piperidin-1-yl)-[1,3,5]triazine-2-amine] | < 16 | –
COc1ccc(OC)c(NC(=O)c2ccc(Nc3nc(N4C[C@H](N)C[C@H](N)C4)nc(N4C[C@H](N)C[C@H](N)C4)n3)cc2O)c1 [N-[4-(2,5-dimethoxy-phenylcarbamoyl)-3-hydroxy-phenyl]-4,6-Bis-((3R,5S)-3,5-diamino-piperidin-1-yl)-[1,3,5]triazine-2-amine] | < 16 | –
Cc1cc(NC(=O)c2ccc(O)cc2O)ccc1Nc1nc(N2C[C@H](N)C[C@H](N)C2)nc(N2C[C@H](N)C[C@H](N)C2)n1 [N-[4-(2,4-dihydroxy-benzoylamino)-2-methyl-phenyl]-4,6-Bis-((3R,5S)-3,5-diamino-piperidin-1-yl)-[1,3,5]triazine-2-amine] | < 64 | –
O=C(Nc1ccccc1)c1ccccc1Nc1nc(N2CCCCC2)nc(N2CCCCC2)n1 [N-(2-phenylcarbamoyl-phenyl)-44,6-Bis-((3R,5S)-3,5-diamino-piperidin-1-yl)-[1,3,5]triazine-2-amine] | – | > 64
CCN(c1ccc(Nc2nc(N3C[C@H](N)C[C@H](N)C3)nc(N3C[C@H](N)C[C@H](N)C3)n2)cc1)C(C)C [N-[4-(ethyl-isopropyl-amino)-phenyl]-4,6-Bis-((3R,5S)-3,5-diamino-piperidin-1-yl)-[1,3,5]triazine-2-amine] | > 64 | –
Cc1ccc(C(=O)Nc2cccc(Nc3nc(N4C[C@H](N)C[C@H](N)C4)nc(N4C[C@H](N)C[C@H](N)C4)n3)c2)c(O)c1 [N-[3-(2-hydroxy-4-methyl-benzoylamino)-phenyl]-4,6-Bis-((3R,5S)-3,5-diamino-piperidin-1-yl)-[1,3,5]triazine-2-amine] | < 64 | –
COc1nc(Nc2ccc(S(=O)(=O)Nc3ccc4cn[nH]c4c3)cc2)nc(N2C[C@H](N)C[C@H](N)C2)n1 [4-[4-((3R,5S)-3,5-Diamino-piperidin-1-yl)-6-methoxy-[1,3,5]triazin-2-ylamino]-N-(1H-indazol-6-yl)-benzenesulfonamide] | > 64 | –
N[C@@H]1C[C@H](N)CN(c2nc(NNC(=O)c3ccccc3O)nc(N3C[C@H](N)C[C@H](N)C3)n2)C1 [2-Hydroxy-benzoicacid N′-[4-((3R,5S)-3,5-diamino-piperidin-1-yl)-6-((3S,5R)-3,5-diamino-piperidin-1-yl)-[1,3,5]triazin-2-yl]-hydrazide] | < 64 | –
Cl.N[C@@H]1C[C@H](N)CN(c2nc(Nc3ccc4c(c3)CCC4)nc(N3C[C@H](N)C[C@H](N)C3)n2)C1 [N-indan-5-yl-4,6-Bis-((3R,5S)-3,5-diamino-piperidin-1-yl)-[1,3,5]triazine-2-amine] | – | > 64
NC[C@@H]1C[C@H](N)CN1c1nc(Nc2ccc(NC(=O)c3ccc4ccccc4c3O)cc2)nc(N2C[C@H](N)C[C@H](N)C2)n1 [1-Hydroxy-naphthalene-2-carboxylic acid {4-[4-((2S,4S)-4-amino-2-aminomethyl-pyrrolidin-1-yl)-6-((3R,5S)-3,5-diamino-piperidin-1-yl)-[1,3,5]triazine-2-ylamino]-phenyl}-amide] | < 16 | –
N[C@@H]1C[C@H](N)CN(c2nc(Nc3cccc(NC(=O)c4cc5cccc(O)c5cc4O)c3)nc(N3C[C@H](N)C[C@H](N)C3)n2)C1 [N-{3-[(3,5-dihydroxy-naphthalene-2-carbonyl)-amino]-phenyl}-4,6-Bis-((3R,5S)-3,5-diamino-piperidin-1-yl)-[1,3,5]triazine-2-amine] | – | < 64
COc1nc(Nc2ccc(NC(=O)c3ccc(C)cc3)c(O)c2)nc(N2C[C@H](N)C[C@H](N)C2)n1 [N-{4-[4-((3R,5S)-3,5-Diamino-piperidin-1-yl)-6-methoxy-[1,3,5]triazin-2-ylamino]-2-hydroxy-phenyl}-4-methyl-benzamide] | < 64 | –
COC(=O)c1c(N2C[C@H](N)C[C@H](N)C2)nc2ccccc2c1N1C[C@H](N)C[C@H](N)C1.Cl [2,4-Bis-((3R,5S)-3,5-diamino-piperidin-1-yl)-quinoline-3-carboxylic acidmethylester] | – | > 64
N[C@@H]1C[C@H](N)CN(c2nc(Nc3ccc(NC(=O)c4ccc(N5Cc6ccccc6C5)cc4O)c(Cl)c3)nc(N3C[C@H](N)C[C@H](N)C3)n2)C1 [N-{3-chloro-4-[4-(1,3-dihydro-isoindol-2-yl)-2-hydroxy-benzoylamino]-phenyl}-4,6-Bis-((3R,5S)-3,5-diamino-piperidin-1-yl)-[1,3,5]triazine-2-amine] | < 16 | –
N[C@@H]1C[C@H](N)CN(c2nc(Nc3ccc(NC(=O)CO)cc3)nc(N3C[C@H](N)C[C@H](N)C3)n2)C1 [N-[4-(2-hydroxy-acetylamino)-phenyl]-4,6-Bis-((3R,5S)-3,5-diamino-piperidin-1-yl)-[1,3,5]triazine-2-amine] | > 64 | –
